These results are taken from patent US11723961B2, “Maspin, maspin derivatives, and maspin mimetics for reducing ROS, inflammation, and skin aging” (Northwestern University, priority 2014, dated 2023).

Assay [1] relates to TM40DNeo, TM40DMp and TM40DT cells. The assay can be described thus: MTT in vitro cell proliferation assay with NAC treatment. It is filed as cell-based, mouse. As to the method: MTT in vitro cell proliferation assay—Cells were seeded at 10^3 cells/well in 96—well plate and allowed to grow at 37° C. with 5% CO2. At each time point MTT (3-(4, 5-dimethylthiazolyl-2)-2, 5 diphenyltetrazolium bromide) reagent (5 mg/ml) was added in a volume of 10 μl per well and incubated at 37° C. with 5% CO2 for 3 hrs. The media was aspirated and 100 μl of DMSO was added and mixed until a uniform purple color was formed. The cell samples were measured using a plate reader at 570 nm. Assays were performed in triplicates.

The test system of assay [2] is pERK1/2 in TM40DNeo, TM40DMp and TM40DT cells. The assay can be described thus: ERK1/2 phosphorylation (Western blot) with NAC treatment. It is filed as cell-based, mouse. The method, then: ERK1/2 phosphorylation—Protein lysates (30 μg) were separated on 12% SDS-PAGE and phospho-plus kit was used to determine the ERK1/2 phosphorylation (Cat No. 9100, Cell Signaling Technology).
In general terms: In western blotting, separated proteins are transferred to a membrane and probed.

Turning to `CC(=O)N[C@@H](CS)C(=O)O` [NAC, N-acetyl cysteine], the proliferation rate result in assay [1] (TM40DMp cells) is listed as “no significant change”; in assay [1] (TM40DNeo cells) it was “significant drop”; in assay [1] (TM40DT cells), “significant drop”. Further, the “levels of activated pERK1/2” value is recorded as “no change” in assay [2] (TM40DMp cells), “significantly reduced” in assay [2] (TM40DNeo cells) and “significantly reduced” in assay [2] (TM40DT cells).
